# Data as given in patent US5994041A, “Process for buffering concentrated aqueous slurries” (priority 1998, dated 1999).
# “Also recorded” adds a separate entry of the source. Like-named read-outs stand apart in the source and are kept apart here.
# Experiments:
# [1] = cited from earlier work
# [2] = Texter, Langmuir, 8, 291 (1992), cited from earlier work
# [3] = Electroacoustic sonic amplitude (ESA) as a function of pH; format: physicochemical
# [4] = pH measurement of FD1 slurry on addition of buffering salt; format: physicochemical; details: 0.1 mole/L aqueous salt added to S1 slurry
# Procedure: Measurements of pH were made using a Corning combination pH electrode, calibrated with VWR buffers of pH 4.0 and pH 7.0, using a Radiometer Copenhagen PHM63 pH meter. Equilibrated measurements were taken at about 24° C. while stirring the solutions or slurries.
# About 97.0 g of the above described S1 slurry were placed in a 200 mL beaker upon a magnetic stirrer, and this slurry was moderately stirred using a magnetic stirring bar.
# About 93.9 g of the above described S1 slurry were placed in a 200 mL beaker upon a magnetic stirrer, and was moderately stirred. […] Aliquots of 0.1 mole/L aqueous sodium citrate were added, and pH was recorded after each addition.
# About 93.3 g of the above described S1 slurry were placed in a 200 mL beaker and stirred.
Structure (SMILES),pKa ([1]; 25° C.),also measured
O=C1CC(=O)NC(=O)N1 [Barbituric acid],4.04,
O=c1[nH]c(=O)c2[nH]c(=O)[nH]c2[nH]1 [Uric acid],5.83,
Cc1ccc(S(=O)(=O)NN)cc1 [p-CH3 --C6 H4 --SO2 NHNH2],10.71,
CCc1ccc(NS(=O)(=O)C(F)(F)F)cc1 [p-CH3 CH2 --C6 H4 --NHSO2 CF3],4.82,
O=C1CS(=O)(=O)NC(=O)N1 [drawing 3],2.88,
O=S(=O)(Nc1ccccc1)c1ccccc1 [C6 H5 --SO2 NH--C6 H5],,pKa ([1]; 20° C.): 8.31
NS(=O)(=O)C(F)F [NH2 SO2 CF2 H],8.06,
"O=S(=O)(O)CCCNCCNCCCS(=O)(=O)O [N,N'-Bis(3-sulphopropyl) ethylenediamine]",,pKa ([1]; 18° C.): 6.65
CC1=NN(c2ccc(C(=O)O)cc2)C(=O)C1=Cc1c(C)nn(-c2ccc(C(=O)O)cc2)c1O [FD2],,intrinsic electrokinetic charge [2]: negative; S-shaped ESA transition over the pH interval ([2]; slurry in the absence of surfactant): 4-6
OCc1c[nH]cn1 [4-Hydroxylmethylimidazole],6.39,
NS(=O)(=O)c1ccc(Cl)cc1 [p-Cl--C6 H4 --SO2 NH2],,pKa ([1]; 20° C.): 9.77
CC(=O)NS(=O)(=O)c1ccccc1 [C6 H5 --SO2 NHCOCH3],4.72,
O=C(O)c1ccc(S(=O)(=O)Nc2ccccc2)cc1 [p-CO2 H--C6 H4 --SO2 NH--C6 H5],,pKa2 ([1]; 20° C.): 7.75
O=P(O)(O)OC(CO)CO [Glycerol-2-phosphoric acid],,pKa2 ([1]; 25° C.): 6.65
Nc1ccccc1C(=O)O [o-Aminobenzoic acid],2.15,
Cc1ccc(N)cc1 [p-Toluidine],5.30,
O=S(=O)(Nc1ccccc1)C(F)F [C6 H5 --NHSO2 CF2 H],6.19,
O=S(=O)(NO)c1ccccc1 [C6 H5 --SO2 NHOH],9.34,
O=C(O)/C=C(\CC(=O)O)C(=O)O [trans-Aconitic acid],,pKa1 ([1]; 25° C.): 2.80; pKa2 ([1]; 25° C.): 4.46
Cc1cc(Cl)ccc1NS(=O)(=O)C(F)(F)F [2-CH3-4-Cl--C6 H3 --NHSO2 CF3],3.90,
O=C(c1ccccc1)c1ccc(NS(=O)(=O)C(F)(F)F)cc1 [p-C6 H5 CO--C6 H4 --NHSO2 CF3],3.22,
CS(=O)(=O)NS(C)(=O)=O [CH3 SO2 NHSO2 CH3],1.36,
CCS(=O)(=O)NC [CH3 CH2 SO2 NHCH3],11.84,

Structure (SMILES),pKa ([1]; 25° C.),also measured
CC1=NN(c2ccc(C(=O)O)cc2)C(=O)C1=CC=Cc1c(C)nn(-c2ccc(C(=O)O)cc2)c1O [FD1],,"intrinsic electrokinetic charge ([3]; FD1 slurries): negative; lowest apparent pKa compared with FD2 ([3]; FD1 versus FD2): three pH units lower than that observed for FD2; solubility of the dye with increasing pH ([3]; above pH 5, FIG. 2): marked increased solubility"
CC(=O)O [sodium acetate],,effect of added buffering salt on slurry pH [4]: increases the slurry pH to a significant extent; also recorded: significantly increases the slurry pH
NNS(=O)(=O)c1ccc(Br)cc1 [p-Br--C6 H4 --SO2 NHNH2],10.36,
NNc1cccc([N+](=O)[O-])c1 [m-NO2 --C6 H4 --NHNH2],9.78,
"O=S(=O)(Nc1ccc(F)cc1F)C(F)(F)F [2,4-difluoro-C6 H3 --NHSO2 CF3]",3.44,
O=S(=O)(Nc1ccc(Cl)cc1C(F)(F)F)C(F)(F)F [2-CF3-4-Cl--C6 H3 --NHSO2 CF3],2.59,
CC(=O)NS(=O)(=O)c1ccc(C)cc1 [p-CH3 --C6 H4 --SO2 NHCOCH3],4.92,
O=C([O-])c1ccccc1O.[Na+] [sodium salicylate],,"effect of added buffering salt on slurry pH [4]: provides some pH control, but that the effect is less than that exhibited comparatively to the earlier examples"
O=S(=O)(NO)c1ccc(Br)cc1 [p-Br--C6 H4 --SO2 NHOH],9.08,
O=C(O)c1ccccc1C(=O)O [Phthalic acid],,pKa2 ([1]; 25° C.): 5.41
NS(=O)(=O)c1ccc(Br)cc1 [p-Br--C6 H4 --SO2 NH2],9.87,
NS(=O)(=O)c1ccc([N+](=O)[O-])cc1 [p-NO2 --C6 H4 --SO2 NH2],,pKa ([1]; 20° C.): 9.14
NS(=O)(=O)CF [NH2 SO2 CFH2],9.32,
CCN(CC)CCN(CC)CC [Tetraethylethylenediamine],,pKa2 ([1]; 25° C.): 5.89
NNS(=O)(=O)c1ccccc1 [C6 H5 --SO2 NHNH2],10.60,
O=C(O)C(Cl)(Cl)Cl [Trichloroacetic acid],0.66,
O=C(NO)c1ccc(Br)cc1 [p-Br--C6 H4 --CONHOH],8.61,
Cc1c[nH]cn1 [4-Methylimidazole],7.67,
CC(=O)NS(=O)(=O)Nc1cccc([N+](=O)[O-])c1 [m-NO2 --C6 H4 --NHSO2 NHCOCH3],3.97,
"O=S(=O)(Nc1c(Cl)cc(Cl)cc1Cl)C(F)(F)F [2,4,6-trichloro-C6 H2 --NHSO2 CF3]",2.70,
"O=S(=O)(Nc1cccc(C(F)(F)F)c1)C(F)(F)F [3,3-CF3 --C6 H4 --NHSO2 CF3]",3.70,
Cc1ccc(S(=O)(=O)NO)cc1 [p-CH3 --C6 H4 --SO2 NHOH],9.40,
O=C1CS(=O)(=O)NC(=O)N1 [drawing 5],11.00,

Structure (SMILES),pKa ([1]; 25° C.),also measured
Cc1ccc(C(=O)NO)cc1 [p-CH3 --C6 H4 --CONHOH],8.99,
O=C(c1ccccc1)c1cccc(NS(=O)(=O)C(F)(F)F)c1 [m-C6 H5 CO--C6 H4 --NHSO2 CF3],3.50,
O=S1(=O)CCCN1,11.39,
NS(=O)(=O)c1cccc([N+](=O)[O-])c1 [m-NO2 --C6 H4 --SO2 NH2],9.40,
O=[N+]([O-])c1cccc(S(=O)(=O)NO)c1 [m-NO2 --C6 H4 --SO2 NHOH],8.60,
c1ccc2ncccc2c1 [Quinoline],5.00,
O=C1NCCS(=O)(=O)N1,4.51,
O=C(NO)c1cccc([N+](=O)[O-])c1 [m-NO2 --C6 H4 --CONHOH],8.20,
COc1ccc(NS(=O)(=O)c2ccccc2)cc1 [p-CH3 O--C6 H4 --NHSO2 --C6 H5],,pKa ([1]; 20° C.): 8.70
CNS(C)(=O)=O [CH3 SO2 NHCH3],11.79,
"O=S(=O)(Nc1ccc(Cl)cc1Cl)C(F)(F)F [2,4-dichloro-C6 H3 --NHSO2 CF3]",2.96,
CC(=O)c1ccc(NS(=O)(=O)C(F)(F)F)cc1 [p-CH3 CO--C6 H4 --NHSO2 CF3],3.29,
O=C(O)CNC(=O)c1ccccc1 [Hippuric acid],3.64,
Cc1ccc(NS(=O)(=O)c2ccccc2)cc1 [p-CH3 --C6 H4 --NHSO2 --C6 H5],,pKa ([1]; 20° C.): 8.64
CC(=O)NS(=O)(=O)c1ccc(Br)cc1 [p-Br--C6 H4 --SO2 NHCOCH3],4.52,
OCCN(CCO)CCN(CCO)CCO [Tetrakis-(2-hydroxyethyl) ethylenediamine],,pKa2 ([1]; 25° C.): 4.5
COc1ccc(NS(=O)(=O)C(F)(F)F)cc1 [p-CH3 O--C6 H4 --NHSO2 CF3],4.90,
CS(=O)(=O)Nc1cccc(C(=O)c2ccccc2)c1 [m-C6 H5 CO--C6 H4 --NHSO2 CH3],8.19,
CC(=O)c1ccc(S(=O)(=O)Nc2ccccc2)cc1 [p-COCH3 --C6 H4 --SO2 NH--C6 H5],,pKa ([1]; 20° C.): 6.94
O=C(c1ccccc1)c1cccc(NS(=O)(=O)CF)c1 [m-C6 H5 CO--C6 H4 --NHSO2 CFH2],6.77,
CN(C)CCN [Dimethylaminoethylamine],,pKa2 ([1]; 25° C.): 6.50
